Results on 6 molecules are retold here after paper PMC3352935, “Enzymatic Analysis of Recombinant Japanese Encephalitis Virus NS2B(H)-NS3pro Protease with Fluorogenic Model Peptide Substrates” (PLoS ONE, 2012).

In test [1] the target is JEV NS2B(H)-NS3pro. The experiment in a line: Enzyme inhibition by aprotinin, Pyr-RTKR-amc substrate. The note with it: 0.5 µM enzyme, 50 mM Tris-HCl pH 9.5, 20% glycerol, aprotinin 0-20 µM, 37°C 30 minutes pre-incubation, 10 µM Pyr-RTKR-amc, triplicate. It is filed as biochemical, Japanese encephalitis virus.
Test [2] concerns the target WNV NS3 protease. The note with it: cited from earlier work.
In test [3] the target is DEN2 NS3 protease. Particulars: cited from earlier work.
Test [4] concerns MVEV NS2B-NS3. The note with it: cited from earlier work.
Test [5] has as its target T1, JEV NS2B(H)-NS3pro (Japanese encephalitis virus, UniProt P32886, DEL1469-1493).
T1 construct: PCR-amplify the NS2B(H) region (amino acids 51–95 and 121–131); The N-terminal one-third (180 residues) of NS3 represents the protease domain NS3(pro); made in house; host or cells: E. coli (the text names both C41 and BL21), vector pTrcHisA
Briefly: Enzymatic activity assay with fluorogenic peptide substrates (Michaelis-Menten kinetics). Particulars: JEV protease. The format is biochemical.

Test [6] has as its system NS2B/NS3 protease of YFV. The note with it: cited from earlier work.
Test [7] has as its system NS2B/NS3 protease of DEN2. Particulars: cited from earlier work.
For test [8], the system named is N2B-NS3 protease of WNV. The note with it: cited from earlier work.
Test [9] concerns JEV NS2B(H)-NS3pro. The note with it: 25 mM NaCl; 100 µM Pyr-RTKR-amc, 0.5 µM enzyme, 50 mM Tris-HCl pH 9.5, 37°C.
For test [10], the system named is dengue virus NS3 protease. The note with it: 100 mM NaCl; cited from earlier work.

“And” between values parts separate entries of the source, which are not always exact repeats. Equal values may be shown once. Read-outs that look alike come from different tables or passages of the source. Square brackets hold non-standard residues; d marks the D form. Peptide text beside a SMILES is read from it. * marks the point of attachment. AMC = Cc1cc(=O)oc2cc(N*)ccc12; Nle = CCCC[C@H](N)C(=O)O; Bz = O=C(c1ccccc1)*

As for aprotinin, the IC50 (as a rule, the concentration that gives 50% inhibition) was 4130 ± 170 nM in test [1]; ~8000 nM and 7800 nM in test [4]. Also, the figures for the Ki in [2] (WNV NS3 protease), in test [2] (non-cleavable form of WNV NS2B-NS3pro) and in test [3] were 162 nM, 26 nM and 26 nM, respectively.

As to `CCCC[C@H](NC(=O)c1ccccc1)C(=O)N[C@@H](CCCCN)C(=O)N[C@@H](CCCNC(=N)N)C(=O)N[C@@H](CCCNC(=N)N)C(=O)Nc1ccc2c(C)cc(=O)oc2c1` [Bz-nKRR-amc] (Bz-[Nle]KRR-{AMC}), the “fold higher k cat/K m of benzoyl compared to acetyl group (Ac-nKRR-amc)” value in [5] was “approximately 1.4 fold”.

In the case of `Cc1cc(=O)oc2cc(NC(=O)[C@H](CCCNC(=N)N)NC(=O)[C@H](CCCNC(=N)N)NC(=O)CNC(=O)OC(C)(C)C)ccc12` [Boc-GRR-amc], in test [5], the “fold higher K m than Boc-LRR-amc” value is on record as 3 fold and the “fold higher catalytic efficiency than Boc-LRR-amc” value was “about 10 fold”. Further, in test [6], the K m is 142 µM and the k cat was 0.034 s⁻¹. In [7], the K m was 150 µM and the k cat is 0.13 s⁻¹.

For Abz-(R)4SAGnY-amide, in test [7], the “k cat/K m” value is 11087 M⁻¹ s⁻¹.

For Pyr-RTKR-amc, the k cat in [7] is 0.02 s⁻¹ and 0.013 s⁻¹. Also, in test [8], the K m was 71 µM, the k cat is 6.3 s⁻¹ and the “k cat/K m” value was 88000 M⁻¹ s⁻¹.

Take `[Cl-].[Na+]` [NaCl]: the “inhibition of cleavage of Pyr-RTKR-amc” value in test [9] is given as “about 50%”. For the same molecule, the “inhibition of the dengue virus NS3 protease” value in [10] is given as 40–50%.
